From patent US8008292B2, “Condensed benzamide compounds and inhibitors of vanilloid receptor subtype 1 (VR1) activity” (Japan Tobacco Inc., priority 2004, dated 2011)
Counter-ions that a name gives are not always drawn.

Biological target: T1, human VR1 (Homo sapiens, UniProt Q8NER1)
T1 construct: expressed in transfected cells
Assay: Inhibition of Ca2+ entry in cells caused by proton, in rat glioma (C6BU1) cells stably expressing human VR1 (Fura 2 fluorescence)
Type: cell-based
Conditions: inhibition of proton-induced Ca2+ entry
Description: The assay for evaluation of VR1 inhibition by the inventive compounds will be described below. The assay was intended to evaluate in vitro inhibition of Ca^2+ entry in cells caused by proton, one of the VR1 agonists.
Rat glioma (C6BU1) cells stably expressing human VR1 were suspended in 20 mM MES buffer (at pH 6.8, contg. 20 mM 2-morpholinoethanesulfonate (referred to as MES hereinafter), 115 mM NaCl, 5 mM KCl, 1 mM MgCl2 and 14 mM D-glucose) to make a cell density of 1×10^6 cells/mL. A fluorescent dye, Fura 2-AMsolution (DojindoCorporate, Cat. No. 343-05401) was added to the suspension to make a 5 μM concentration thereof. Further, Pluronic F-127 (Wako Pure Chemical Industries, Ltd., Cat. No. P6866) was added to make a 0.1% content thereof. Then, the suspension was incubated at 37° C. for 30 min. The cells were harvested and washed three times with 20 mM MES buffer. The cells were suspended again to make a cell density of 5×10^5 cells/mL. A 500-μL portion of the suspension was taken with a cuvette (MC MEDICAL, INC., Cat. No. SSR3121), to which 10 μL of 20 mM MES buffer containing 250 mM CaCl2 was added to incorporate Ca^2+ into the cells. At the same time, 5 μL of a test compound solution (in a range of 100 μM to 10 nM in DMSO) was also added to provide a final concentration thereof in a range of 1 μM to 0.1 nM. Alternatively, 5 μL of DMSO was added as control to provide a final concentration of 1% DMSO. The suspension was set in an intracellular ionometer (CAF-110; JASCO) 10 min after those additions. The cells were stimulated with protons by addition of 60 μL of 20 mM MES buffer at pH 1.1 to the suspension to set its pH at 5.5. The activity of the test compound was determined as a difference between the minimum of fluorescence intensity before agonist stimulation and its maximum after the stimulation. The value of IC50 was derived from percentage of inhibition by the test compound compared with the control.
In the tables, the symbol “++” indicates an IC50 value less than 100 nM and the symbol “+” indicates an IC50 value of 100 nM to 1,000 nM inclusive.

T1 sequence (Q8NER1 whole entry): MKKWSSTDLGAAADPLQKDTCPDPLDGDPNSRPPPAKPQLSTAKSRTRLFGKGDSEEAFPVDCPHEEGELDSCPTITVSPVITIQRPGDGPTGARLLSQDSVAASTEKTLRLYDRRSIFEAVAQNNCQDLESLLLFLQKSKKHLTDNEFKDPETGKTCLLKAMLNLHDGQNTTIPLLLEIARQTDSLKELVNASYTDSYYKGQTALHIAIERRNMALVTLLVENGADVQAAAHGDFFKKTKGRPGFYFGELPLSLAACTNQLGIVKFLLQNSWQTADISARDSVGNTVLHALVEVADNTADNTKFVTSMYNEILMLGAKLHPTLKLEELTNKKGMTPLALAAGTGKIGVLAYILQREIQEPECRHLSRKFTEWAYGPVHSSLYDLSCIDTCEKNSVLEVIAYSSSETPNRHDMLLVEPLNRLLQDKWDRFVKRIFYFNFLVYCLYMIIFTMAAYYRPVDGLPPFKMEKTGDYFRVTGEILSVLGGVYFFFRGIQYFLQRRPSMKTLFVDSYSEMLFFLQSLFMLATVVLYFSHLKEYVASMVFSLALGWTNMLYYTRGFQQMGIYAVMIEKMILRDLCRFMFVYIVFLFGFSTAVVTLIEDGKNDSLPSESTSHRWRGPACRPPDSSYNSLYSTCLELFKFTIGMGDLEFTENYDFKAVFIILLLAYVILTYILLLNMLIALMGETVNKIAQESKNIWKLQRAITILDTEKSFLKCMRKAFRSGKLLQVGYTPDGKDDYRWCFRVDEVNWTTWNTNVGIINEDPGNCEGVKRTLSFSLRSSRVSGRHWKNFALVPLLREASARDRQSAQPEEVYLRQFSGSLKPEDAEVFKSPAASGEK

`Cc1ccc(N2c3cccc(C(=O)Nc4ccc(C(F)(F)F)cc4)c3OC[C@@H]2CO)nc1` [Example 4-08, (S)-4-(5-picoline-2-yl)-3-hydroxylmethyl-N-(4-trifluoromethylphenyl)-3,4-dihydro-2H-benzo[1,4]oxazine-8-carboxamide] was tested. Which IC50 did it give?
The IC50 was less than 100 nM.

With `Cc1ccc(N2CCOc3c(C(=O)Nc4ccc(Cl)c(N)c4)cccc32)nc1` [Example 1-063] as the molecule, how does the IC50 read?
The IC50 was less than 100 nM.

How did the IC50 turn out when `O=C(Nc1ccc(Cl)c(Cl)c1)c1cccc2c1OC[C@H](CO)N2c1ncccc1Cl` [Example 4-34] was run?
The IC50 was less than 100 nM.

With `CC(C)(C)c1ccc(NC(=O)c2cccc3c2OCCN3c2ccc(CO)cn2)cc1` [Example 2-28] as the molecule, how does the IC50 read?
The IC50 was less than 100 nM.

`COc1cnc(N2CCOc3c(C(=O)Nc4ccc(C(F)(F)F)cc4)cccc32)c(Cl)c1` [Example 1-145] was tested. Which IC50 did it give?
Its IC50 is less than 100 nM.

With `O=C(Nc1ccc(OC(F)(F)F)cc1)c1cccc2c1OC[C@@H](CO)N2c1ncccc1Cl` [Example 4-01, (R)-4-(3-chloropyridin-2-yl)-3-hydroxylmethyl-N-(4-trifluoromethoxyphenyl)-3,4-dihydro-2H-benzo[1,4]oxazine-8-carboxamide] as the molecule, how does the IC50 read?
The IC50 was 100 to 1000 nM.

Which IC50 does the source give for `O=C(Nc1cc(C(F)(F)F)cc(C(F)(F)F)c1)c1cccc2c1OCCN2c1ncc(CO)cc1Cl` [Example 2-29] here?
The IC50 was less than 100 nM.

`O=C(Nc1ccc(Br)c(Cl)c1)c1cccc2c1OC[C@H](CO)N2c1ncccc1Cl` [Example 4-19] was tested. Which IC50 did it give?
The IC50 was less than 100 nM.

`Cc1ccc(N2CCOc3c(C(=O)Nc4ccc(N5CCOCC5)c(F)c4)cccc32)nc1` [Example 1-157] was tested. Which IC50 did it give?
The IC50 was less than 100 nM.

Which IC50 does the source give for `O=C(Nc1ccc(N2CCOCC2)c(C(F)(F)F)c1)c1cccc2c1OC[C@H](CO)N2c1ncccc1Cl` [Example 4-39] here?
Its IC50 is less than 100 nM.

`CC(C)(C)c1ccc(NC(=O)c2cccc3c2OCCN3c2ncccc2C(F)(F)F)cc1` [Example 1-017] was tested. Which IC50 did it give?
The IC50 was less than 100 nM.

`Cc1ccc(N2c3cccc(C(=O)Nc4ccc(F)c(C(F)(F)F)c4)c3OC[C@@H]2CO)nc1` [Example 4-55] was tested. Which IC50 did it give?
The IC50 was less than 100 nM.

For `O=C(Nc1ccc(C(F)(F)F)c(F)c1)c1cccc2c1OC[C@H](CO)N2c1ncccc1Cl` [Example 4-53], which IC50 is on record?
The IC50 was less than 100 nM.

For `O=C(Nc1ccc(F)c(C(F)(F)F)c1)c1cccc2c1OC[C@H](CO)N2c1ncccc1Cl` [Example 4-18], which IC50 is on record?
Its IC50 is less than 100 nM.

Which IC50 does the source give for `Cc1cnc(N2c3cccc(C(=O)Nc4ccc(OC(C)C)c(F)c4)c3OC[C@@H]2CO)s1` [Example 6-4] here?
Its IC50 is less than 100 nM.

`CC(C)Oc1ccc(NC(=O)c2cccc3c2OCCN3c2ncccc2Cl)cc1` [Example 1-007] was tested. Which IC50 did it give?
The IC50 was less than 100 nM.

Which IC50 does the source give for `Cc1ccc(N2CCOc3c(C(=O)Nc4ccc(Cl)c(C(C)(C)C)c4)cccc32)nc1` [Example 1-081] here?
Its IC50 is less than 100 nM.

Which IC50 does the source give for `O=C(Nc1ccc(N2CCCCC2)c(F)c1)c1cccc2c1OCCN2c1ncccc1Cl` [Example 1-095] here?
Its IC50 is less than 100 nM.

Which IC50 does the source give for `CC(C)(C)ON1CCC(NC(=O)c2cccc3c2OCCN3c2ncccc2Cl)CC1` [Example 1-043] here?
Its IC50 is 100 to 1000 nM.

With `COc1ccc(NC(=O)c2cccc3c2OCCN3c2ncccc2Cl)cc1` [Example 1-023] as the molecule, how does the IC50 read?
Its IC50 is 100 to 1000 nM.

For `Cc1cnc(N2c3cccc(C(=O)Nc4ccc(OC(C)(C)C)c(F)c4)c3OC[C@@H]2CO)s1` [Example 6-5], which IC50 is on record?
Its IC50 is less than 100 nM.

`CCc1cnc(N2CCOc3c(C(=O)Nc4ccc(Cl)cc4)cccc32)nc1` [Example 5-2, N-(4-chlorophenyl)-4-(5-ethylpyrimidin-2-yl)-3,4-dihydro-2H-benzo[1,4]oxazine-8-carboxamide] was tested. Which IC50 did it give?
The IC50 was 100 to 1000 nM.

For `O=C(Nc1ccc(Cl)c(C(F)(F)F)c1)c1cccc2c1OC[C@H](CO)N2c1ncccc1Cl` [Example 4-35], which IC50 is on record?
The IC50 was less than 100 nM.

With `O=C(Nc1ccc(SC(F)(F)F)cc1)c1cccc2c1OCCN2c1ncc(CO)cc1Cl` [Example 2-32] as the molecule, how does the IC50 read?
The IC50 was less than 100 nM.

For `Cc1ccc(N2c3cccc(C(=O)Nc4ccc(OC(F)(F)F)cc4)c3OC[C@@H]2CO)nc1` [Example 4-07, (S)-4-(5-picoline-2-yl)-3-hydroxylmethyl-N-(4-trifluoromethoxyphenyl)-3,4-dihydro-2H-benzo[1,4]oxazine-8-carboxamide], which IC50 is on record?
Its IC50 is less than 100 nM.

Which IC50 does the source give for `CC(C)(C)c1ccc(NC(=O)c2cccc3c2OCCN3c2ccc([N+](=O)[O-])cn2)cc1` [Example 1-140] here?
The IC50 was less than 100 nM.

`CCOC(=O)CO[C@H]1CC[C@H](NC(=O)c2cccc3c2OCCN3c2ccc(C)cn2)CC1` [Example 1-176] was tested. Which IC50 did it give?
Its IC50 is 100 to 1000 nM.

`CC(C)(C)COc1ccc(NC(=O)c2cccc3c2OC[C@H](CO)N3c2ncccc2Cl)cc1` [Example 4-15] was tested. Which IC50 did it give?
The IC50 was less than 100 nM.

For `Cc1cccnc1N1c2cccc(C(=O)Nc3ccc(C(F)(F)F)cc3)c2OC[C@@H]1CO` [Example 4-42], which IC50 is on record?
Its IC50 is less than 100 nM.

Which IC50 does the source give for `Cc1ccc(N2CCOc3c(C(=O)N[C@H]4CC[C@H](OCC(C)(C)C)CC4)cccc32)nc1` [Example 1-193] here?
The IC50 was less than 100 nM.

For `Cc1cnc(N2c3cccc(C(=O)Nc4ccc(C(F)(F)F)nc4)c3OC[C@@H]2CO)s1` [Example 6-10], which IC50 is on record?
Its IC50 is less than 100 nM.

How did the IC50 turn out when `O=C(Nc1ccc(N2CCCCC2)cc1)c1cccc2c1OCCN2c1ncccc1Cl` [Example 1-048] was run?
Its IC50 is less than 100 nM.

For `O=C(Nc1ccc(C(F)(F)F)cc1)c1cccc2c1OCCN2c1ccc(CO)cn1` [Example 2-07, N-(4-trifluoromethylphenyl)-4-(5-hydroxymethylpyridin-2-yl)-3,4-dihydro-2H-benzo[1,4]oxazine-8-carboxamide hydrochloride], which IC50 is on record?
Its IC50 is less than 100 nM.

For `O=C(Nc1ccc(Cl)cc1)c1cccc2c1OC[C@H](CO)N2c1ncccc1Cl` [Example 4-16], which IC50 is on record?
Its IC50 is less than 100 nM.

How did the IC50 turn out when `CC(O)c1cnc(N2CCOc3c(C(=O)Nc4ccc(OC(F)(F)F)cc4)cccc32)c(Cl)c1` (single isomer, unassigned; (+)) [Example 2-14, (+)-N-(4-trifluoromethoxyphenyl)-4-{3-chloro-5-(1-hydroxyethyl)pyridin-2-yl}-3,4-dihydro-2H-benzo[1,4]oxazine-8-carboxamide] was run?
Its IC50 is less than 100 nM.

For `Cc1ccc(NC(=O)c2cccc3c2OC[C@H](CO)N3c2ncccc2Cl)cc1F` [Example 4-13], which IC50 is on record?
Its IC50 is less than 100 nM.

`O=C(O)c1ccc(N2CCOc3c(C(=O)Nc4ccc(C(F)(F)F)cc4)cccc32)nc1` [Example 1-128] was tested. Which IC50 did it give?
Its IC50 is 100 to 1000 nM.

For `O=C(Nc1ccc(F)c([N+](=O)[O-])c1)c1cccc2c1OCCN2c1ncc(CO)cc1Cl` [Example 2-26], which IC50 is on record?
Its IC50 is 100 to 1000 nM.

With `CC(C)Oc1ccc(NC(=O)c2cccc3c2OCCN3c2ncccc2Cl)cc1C(F)(F)F` [Example 1-055] as the molecule, how does the IC50 read?
Its IC50 is less than 100 nM.

Which IC50 does the source give for `Cc1cnc(N2c3cccc(C(=O)Nc4ccc(N5CCOCC5)c(F)c4)c3OC[C@@H]2CO)s1` [Example 6-9] here?
Its IC50 is less than 100 nM.

With `CCOC1CCN(c2ccc(NC(=O)c3cccc4c3OCCN4c3ncccc3Cl)cc2F)CC1` [Example 1-102] as the molecule, how does the IC50 read?
Its IC50 is less than 100 nM.

`Cc1cnc(N2c3cccc(C(=O)Nc4ccc(Br)c(F)c4)c3OC[C@@H]2CO)s1` [Example 6-7] was tested. Which IC50 did it give?
The IC50 was less than 100 nM.

For `O=C(Nc1ccc(Br)cc1)c1cccc2c1OCCN2c1ncc(CO)cc1Cl` [Example 2-42], which IC50 is on record?
Its IC50 is less than 100 nM.

With `COC1CCN(c2ccc(NC(=O)c3cccc4c3OCCN4c3ncccc3Cl)cc2F)CC1` [Example 1-101] as the molecule, how does the IC50 read?
The IC50 was less than 100 nM.

For `CC(C)Oc1ccc(NC(=O)c2cccc3c2OC[C@H](CO)N3c2ncccc2Cl)cc1C(F)(F)F` [Example 4-21], which IC50 is on record?
Its IC50 is less than 100 nM.

`CC(C)COc1ccc(NC(=O)c2cccc3c2OCCN3c2ccc(CO)cn2)cc1` [Example 2-08, 4-(5-hydroxymethylpyridin-2-yl)-N-(4-isobutyloxyphenyl)-3,4-dihydro-2H-benzo[1,4]oxazine-8-carboxamide] was tested. Which IC50 did it give?
Its IC50 is less than 100 nM.

`CC(C)Oc1ccc(NC(=O)c2cccc3c2OCCN3c2ncc(CO)cc2Cl)cc1C(F)(F)F` [Example 2-19] was tested. Which IC50 did it give?
The IC50 was less than 100 nM.
